pIC50: −log10 of the molar value.
Assays:
[1] = tested on: GABAA receptor; conditions: cited from earlier work; for influence on GABAA receptor: compared with phellopterin
[2] = tested on: GABA/BDZ receptor; design: method as in PMID 8971802; conditions: cited from earlier work
[3] = tested on: animal model; conditions: cited from earlier work; for anxiolytic activity (percentage of time and number of arms entries in the open arm): elevated plus maze
[4] = Shake-flask partition coefficient in HEMWat biphasic solvent systems; assay type: physicochemical
Protocol: The screening for suitable biphasic solvent systems to isolate the target coumarins from Seseli devenyense methanolic fruit extract (SDMFE) was performed by shake-flask experiments. The partition coefficient (Pi), defined as the ratio of the concentration of a solute in the stationary phase to its concentration in the mobile phase, was used as the screening parameter. The experimental protocol was previously descried by Widelski et al. (2018). Briefly, 1 mg of crude extract was dissolved in 4 mL of biphasic solvent systems obtained by mixing various volumes of hexane, ethyl acetate, methanol and water (HEMWat). After vigorous shaking, the flasks were left until the complete separation of the layers. Then, equal volumes of the upper and lower phase (0.5 mL) were taken, evaporated to dryness, dissolved again in methanol (1.0 mL) and analyzed by HPLC-DAD analysis, as descried below.
The preliminary analysis of the SDMFE, determination of the partition coefficient values and purity of collected fractions were assessed by HPLC-DAD. The HPLC-DAD analyses were performed on a Shimadzu HPLC (Shimadzu, Tokyo, Japan) equipped with automatic degasser (DGU-20A3R), quaternary pump (LC-20AD), auto-sampler (SIL-20AHT) and diode array detector (SPD-M20A). The separations were carried out on an Agilent Zorbax Eclipse XDB-C18 (Agilent, Santa Clara, CA, USA) (250 mm × 4.6 mm, 5 μm) column with a mobile phase consisting of water (solvent A) and methanol (solvent B). The following gradient was applied: 0 min: 50% B; 5 min: 60% B; 25 min: 80% B; 30–35 min: 100% B. The flow-rate was 1 mL/min; the column temperature was set at 25 °C. The injection volume of sample was 10 μL and detection was carried out at 320 nm.

[5] = tested on: 5-dpf zebrafish larvae; assay: Zebrafish larvae light/dark transition challenge: locomotor activity and thigmotaxis (anxiolytic activity assay, Phase 2); assay type: in vivo, Danio rerio; conditions: for distance moved by the larvae in the central arena / time spent in the central area: dark phase vs light phase, concentration not stated; for anxiolytic activity (authors' overall statement): zebrafish larvae model
Protocol: (§1) The research protocol was adopted after Schnorr et al. (2012). The anxiolytic activity was evaluated in 24-well plates. The inner and outer zones of the well were delineated according to Schnorr et al. (2012). […] It could be also described as decreasing thigmotaxis. 1% DMSO in E3 solution was used as the negative control, 10 μM diazepam was used as the positive control. 32 larvae were used for each concentration.
(§2) The experimental procedure was divided into three stages: • (a) Preincubation: larvae were pre-incubated in a 1500 μL solution of tested compounds in individual wells of a 24-well plate at 28.5 °C, in dark, for 30 min. • (b) Acclimatization (min 0–10): plates were placed in an automated video recording bench station (ViewPoint, Lyon, France). Larvae were allowed to acclimatize to the test apparatus for 10 min. During this period, lights were kept on. • (c) Visual motor challenge (min 11–95): this stage experiment was divided into two phases: Phase 1—continuous illumination: larvae were subjected to continuous light for 40 min, with the purpose to determine the spontaneous locomotor activity and thigmotaxis behavior (before applying the factor causing the anxiety). Phase 2—light/dark transition: larvae were subjected to three cycles, each involving the 10-min lighting phase (continuous light) and the 5-min dark phase (anxiogenic factor).

[6] = tested on: 5-dpf zebrafish larvae; assay: Zebrafish larvae 40 min continuous illumination: spontaneous locomotor activity and thigmotaxis (Phase 1); assay type: in vivo, Danio rerio; conditions: for spontaneous locomotor activity (average distance moved): 40 min continuous illumination
Protocol: as §1, §2

[7] = tested on: mice; conditions: 5 mg/kg; cited from earlier work
[8] = design: method as in PMID 23803166; conditions: cited from earlier work
[9] = tested on: zebrafish; design: method as in PMID 33049351; conditions: zebrafish model; cited from earlier work
[10] = tested on: murine model; design: method as in PMID 33049351; conditions: cited from earlier work
[11] = dark phase vs DMSO-treated group in dark phase, 12.5 μM
[12] = dark phase vs DMSO-treated group in dark phase, 25 μM
[13] = dark phase vs DMSO-treated group in dark phase, 50 μM
[14] = dark phase vs light phase within same group, 12.5 μM
[15] = dark phase vs light phase within same group, 25 μM
[16] = light phase vs DMSO-treated group in light phase, 12.5 μM
[17] = light phase vs DMSO-treated group in light phase, 50 μM
[18] = 40 min continuous illumination vs DMSO-treated group, 12.5 µM
[19] = dark phase vs DMSO-treated group in dark phase, 9 μM
[20] = dark phase vs light phase within same group, 9 μM
[21] = dark phase vs light phase within same group, 15 μM
[22] = dark phase vs light phase within same group, 30 μM

COc1c2ccoc2cc2oc(=O)ccc12 [bergapten]
influence on GABAA receptor [1]: weaker influence

COc1c2ccoc2c(OC[C@H]2OC2(C)C)c2oc(=O)ccc12 [byakangelicol]
mode of action at GABA/BDZ receptor [2]: partial agonists

COc1cc2cc(Oc3ccc4ccc(=O)oc4c3)c(=O)oc2cc1O [daphnoretin]
anxiolytic activity ([3]; rodent model of anxiety, tested on EPM): significant anxiolytic activity

CC(C)=CCOc1c2occc2cc2ccc(=O)oc12 [imperatorin]
influence on GABAA receptor [1]: weaker influence | anxiolytic activity (percentage of time and number of arms entries in the open arm) [3]: significant anxiolytic activity

CC(C)=CCOc1c2ccoc2cc2oc(=O)ccc12 [isoimperatorin]
anxiolytic activity (percentage of time and number of arms entries in the open arm) [3]: significant anxiolytic activity

C/C=C(/C)C(=O)O[C@H]1[C@@H](O)c2c(ccc3ccc(=O)oc23)OC1(C)C [isolaserpitin]
Partition Coefficients (Pi) ([4]; solvent system II, hexane/ethyl acetate/methanol/water 6/5/6/5 (v/v/v/v)): 1.01 | locomotor activity (average distance moved per 1-min time bin) [5, 11]: significant increases | percentage of distance moved in central area [5, 11]: significant increases | percentage of time spent in central area [5, 11]: significant increases | locomotor activity (average distance moved per 1-min time bin) [5, 12]: significant increases | percentage of distance moved in central area [5, 12]: significant increases | percentage of time spent in central area [5, 12]: significant increases | locomotor activity (average distance moved per 1-min time bin) [5, 13]: significant increases | percentage of distance moved in central area [5, 13]: significant increases | percentage of time spent in central area [5, 13]: significant increases | percentage of distance moved in central area [5, 14]: increase | percentage of time spent in central area [5, 14]: increase | percentage of distance moved in central area [5, 15]: increase | percentage of time spent in central area [5, 15]: increase | percentage of distance moved in central area ([5]; dark phase vs light phase within same group, 50 μM): increase | distance moved by the larvae in the central arena [5]: significantly increased | time spent in the central area [5]: significantly increased | locomotor activity (average distance moved per 1-min time bin) [5, 16]: significant increase | percentage of distance moved in central area [5, 16]: significant increase | percentage of time spent in central area [5, 16]: significant increase | locomotor activity (average distance moved per 1-min time bin) ([5]; light phase vs DMSO-treated group in light phase, 25 μM): significant increase | locomotor activity (average distance moved per 1-min time bin) [5, 17]: significant increase | percentage of distance moved in central area [5, 17]: significant increase | percentage of time spent in central area [5, 17]: significant increase | anxiolytic activity (authors' overall statement) [5]: higher | percentage of distance moved in the central arena [6, 18]: increased | percentage of time spent in the central arena [6, 18]: increase | percentage of distance moved in the central arena ([6]; 40 min continuous illumination vs DMSO-treated group, 50 µM): increased | spontaneous locomotor activity (average distance moved) ([6]; all concentrations (12.5, 25, 50 µM)): has not influenced

CCCCCCCC(=O)O[C@H]1Cc2c(ccc3ccc(=O)oc23)OC1(C)C [octanoyllomatin]
Partition Coefficients (Pi) ([4]; solvent system III, hexane/ethyl acetate/methanol/water 5/2/5/2 (v/v/v/v)): 2.01 | percentage of distance moved in central area [5, 19]: significant increases | percentage of time spent in central area [5, 19]: significant increases | percentage of time spent in central area ([5]; dark phase vs DMSO-treated group in dark phase, 15 μM): significant increases | locomotor activity (average distance moved per 1-min time bin) ([5]; dark phase vs DMSO-treated group in dark phase, 30 μM): significant decreases | locomotor activity (average distance moved per 1-min time bin) [5, 20]: increase | percentage of distance moved in central area [5, 20]: increase | percentage of time spent in central area [5, 20]: increase | locomotor activity (average distance moved per 1-min time bin) [5, 21]: increase | percentage of distance moved in central area [5, 21]: increase | percentage of time spent in central area [5, 21]: increase | percentage of distance moved in central area [5, 22]: increase | percentage of time spent in central area [5, 22]: increase | distance moved by the larvae in the central arena [5]: significantly increased | time spent in the central area [5]: significantly increased | percentage of time spent in central area ([5]; light phase vs DMSO-treated group in light phase, 30 μM): decrease | anxiolytic activity (authors' overall statement) [5]: highest anxiolytic activity | spontaneous locomotor activity (average distance moved) ([6]; all concentrations (9, 15, 30 µM)): has not influenced

CC(C)=CCCC(C)=CCc1cc2ccc(=O)oc2cc1O [ostruthin, 6-(3,7-dimethyl-2,6-octadienyl)-7-hydroxycoumarin]
anxiolytic effect [7]: anxiolytic effect

COc1c2ccoc2c(OCC=C(C)C)c2oc(=O)ccc12 [phellopterin]
pIC50 [1]: 6.44 | mode of action at GABA/BDZ receptor [2]: partial agonists

O=c1ccc2cc3ccoc3cc2o1 [psolaren]
mode of action at GABA/BDZ receptor [2]: partial agonists

COc1cc2ccc(=O)oc2cc1O [scopoletin, 7-hydroxy-6-methoxycoumarin]
anxiolytic effects [8]: significant sustained anxiolytic effects

O=c1ccc2ccc(O)cc2o1 [umbelliferone, 7-hydroxycoumarin]
anxiolytic effects [8]: significant sustained anxiolytic effects

COc1c2occc2cc2ccc(=O)oc12 [xanthotoxin]
effect on anxiety behaviors (thigmotaxis) [9]: reversed U-shape effect | effect on anxiety behaviors (thigmotaxis) [10]: reversed U-shape effect
